# Assay results from patent US11939377B2, “Affinity matured CD22-specific monoclonal antibody and uses thereof” (The U.S.A., as represented by the Secretary, Department of …, priority 2018, dated 2024).
# Tests used:
# PKC-βII = target: T1, PKC-βII (Homo sapiens, UniProt P05771); test: PKC-βII western blot of Bryostatin 1-treated cell lines; assay type: cell-based; details: 24 hours exposure
# T1 construct: Leukemia cell protein extracts were prepared by lysing cells with RIPA buffer; endogenous in cells; host or cells: Toledo, Kopn8, Nalm6
# T1 sequence (P05771 1-673 isoform P05771-2): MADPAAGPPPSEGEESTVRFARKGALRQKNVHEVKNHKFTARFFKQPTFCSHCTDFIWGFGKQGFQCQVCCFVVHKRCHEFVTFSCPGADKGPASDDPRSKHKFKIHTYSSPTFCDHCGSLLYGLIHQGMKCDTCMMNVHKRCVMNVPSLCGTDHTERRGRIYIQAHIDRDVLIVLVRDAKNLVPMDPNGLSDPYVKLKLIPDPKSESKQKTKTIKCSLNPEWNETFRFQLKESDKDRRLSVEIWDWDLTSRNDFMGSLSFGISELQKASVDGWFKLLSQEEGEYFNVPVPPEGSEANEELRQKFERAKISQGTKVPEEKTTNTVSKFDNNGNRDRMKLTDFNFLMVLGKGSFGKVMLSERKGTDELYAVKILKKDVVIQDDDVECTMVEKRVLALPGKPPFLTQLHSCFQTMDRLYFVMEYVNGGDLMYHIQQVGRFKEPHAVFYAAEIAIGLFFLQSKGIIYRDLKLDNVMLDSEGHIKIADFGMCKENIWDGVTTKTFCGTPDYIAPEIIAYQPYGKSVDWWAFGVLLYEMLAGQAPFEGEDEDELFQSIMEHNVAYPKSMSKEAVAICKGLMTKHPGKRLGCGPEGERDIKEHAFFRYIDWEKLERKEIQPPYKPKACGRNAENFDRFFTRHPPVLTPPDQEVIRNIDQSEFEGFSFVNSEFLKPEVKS
# Procedure: (§1) FIGS. 10A-10E: (FIG. 10A) Three cell lines (Toldeo, Kopn8 and Nalm6) were co-incubated with Bryostatin 1 at varying concentrations for 24 hours. At 24 hours, cells were collected for protein kinase C (PKC)-βII isoform analysis by western blot. (FIG. 10B) KOPN8 or SEM cell lines were exposed to Bryostatin 1 for 16, 24, 48 or 72 hours. RNA was extracted from cells and analyzed using RNAseq. (FIG. 10C) Immunofluorescent staining of CD22 was conducted through permeabilization followed by staining of CD22. (FIG. 10D) Four cell lines were co-incubated with various combinations of Enzastaurin (10 μM), Staurosporine (100 μM), or Bryostatin 1 (1 nM) for 24 hours. CD22 expression was assessed using flow cytometry. MFI fold change=CD22 MFI^Bryostatin1/CD22 MFI^DMSO. (FIG. 10E) Cell lines were co-incubated with 1 nM Bryostatin 1 for 24 hours and measured for CD22 expression using CD22-PE antibody. MFI fold change=CD22 MFI^Bryostatin 1/CD22 MFI^DMSO.
# Leukemia cell protein extracts were prepared by lysing cells with RIPA buffer and heating at 98° C. for 5 minutes. The proteins were separated on an SDS-PAGE gel and transferred to a nitrocellulose membrane. The membranes were immunoblotted with antibodies PKC-βII and GAPDH (Abcam), overnight at 4° C. […]
# CD22 = test: Immunofluorescent staining of CD22 in permeabilized leukemia cells; assay type: cell-based, human; details: 24 hours after exposure, 1 nM
# Procedure: as §1
# μ-dish 35 mm, high glass bottom dishes (Ibidi Inc, Madison, WI) were coated with poly-D-lysine for 2 hours and then seeded with 5×10^5 leukemia cells, which had been pre-treated with either 1 nM Bryostatin 1 or DMSO control for 24 hours. Approximately 12 hours after seeding, cells were fixed in 4% paraformaldehyde and then permeabilized with 0.2% Triton X-100 detergent. […]
# [1] = system: ALL and DLBCL tumor cells (Nalm6 site density lines and others); test: In vitro cytokine / granzyme B production assay (ELISA), CAR T cells co-cultured with tumor cells; assay type: cell-based, human
# Procedure: For cytokine production assays, CAR or mock T cells were washed to remove IL-2 and re-suspended in RPMI medium. 1×10^5 effector cells were then co-cultured with tumor cells in RPMI at a 1:1 effector to target ratio in 96-well plates and incubated at 37° C. for 20 hours. The plates were spun at 1200 RPM for 6 minutes to pellet the cells, and cytokine concentrations in the culture supernatants were measured using IL-2 ELISA (R&D systems), IFNγ ELISA (R&D systems), or granzyme B ELISA (Thermo Fisher Scientific) kits according to the manufacturer's directions.
# [2] = CAR T cells pre-treated 1 ng/ml 24 hours, co-culture with ALL or DLBCL cell lines
compound,measurement,setting,value
CCC/C=C/C=C/C(=O)O[C@H]1/C(=C/C(=O)OC)C[C@H]2C[C@H]([C@@H](C)O)OC(=O)C[C@H](O)C[C@@H]3C[C@H](OC(C)=O)C(C)(C)[C@](O)(C[C@@H]4C/C(=C/C(=O)OC)C[C@H](/C=C/C(C)(C)[C@]1(O)O2)O4)O3 [Bryostatin 1],PKCβII protein levels on ALL,PKC-βII,decreased
same,vacuolated CD22 compared to DMSO controls,CD22,less vacuolated CD22
same,IFN-γ produced by pre-treated CD22 CAR relative to DMSO-control,[1]; [2],attenuated levels
same,granzyme B produced by pre-treated CD22 CAR relative to DMSO-control,[1]; [2],significantly increased levels
same,Granzyme B production by the CD19 CAR,[1]; SEM cells exposed to 1 nM for 24 hours,did not show improved Granzyme B production
same,"production of IL-2, IFN-γ, and granzyme B by the CD22 CAR","[1]; pre-treatment of B-ALL and DLBCL target cells, 1 ng/ml 24 hours",significantly enhanced
